Experimental data published in the NIST ThermoML archive (doi:10.1016/j.tca.2013.06.032).
Numbers after ± are expanded uncertainties.

Legend:
[1] = Crystal; DTA
[2] = Molar enthalpy of transition or fusion; settings: Crystal; DSC

Normal melting temperature [1]: 170.52 ± 1.1 °C
Molar enthalpy of transition or fusion [2]: 10 ± 0.263 kcal/mol
SMILES: Cc1nc2n(c(=O)c1CCN1CCC(c3noc4cc(F)ccc34)CC1)CCCC2 [risperidone]
